No end group written: not given here.
Assay: In vitro plasma stability
Format: in vitro ADME, mouse (C57BL/6)
Conditions: C57BL/6, mouse, read-out: half-life t1/2 (in vitro plasma) (converted)
Procedure: Each aliquot (50 μl) was mixed with 150 μl methanol, vortexed, spun, removed the supernatant and reconstituted the pellet with 150 μl 10% formic acid in water. The sample was vortexed and spun and a 100 μl aliquot was taken, diluted 1:1 with 10 mM ammonium bicarbonate, and analyzed by LC-MS/MS. Using the remaining vs. time dataset, we performed a first-order decay analysis by fitting a linear regression to the natural log-transformed percent remaining values (excluding 0% and t = 0 anchor point) to plot the graph.

half-life at 5 μg/ml: 334 min
Sequence: SSMKLSFRARAYGFRGPGPQL [CST, Catestatin]

From publication PMC12869562 (Research Square, 2026)
